PubChem BioAssay (NCI)
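1) Cells in 96-well plates. 2) Compound, 48 h, 5 concentrations. 3) Linear interpolation between surrounding doses. 4) Unreached endpoint = highest concentration. GI50 = concentration required for 50% inhibition of growth. TGI: concentration producing complete growth inhibition.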

Assays:
Assay in all cases: growth of human tumour cells (NCI), 48 h
786-0 renal = test system: 786-0 renal
EKVX NSCLC = test system: EKVX NSCLC
HOP-62 NSCLC = test system: HOP-62 NSCLC
LOX IMVI melanoma = test system: LOX IMVI melanoma
MCF7 breast = test system: MCF7 breast
NCI-H226 lung = test system: NCI-H226 lung
NCI-H522 lung = test system: NCI-H522 lung
SK-MEL-5 melanoma = test system: SK-MEL-5 melanoma
SNB-75 CNS = test system: SNB-75 CNS
UACC-62 melanoma = test system: UACC-62 melanoma

| SMILES | GI50 (786-0 renal) | TGI (786-0 renal) | GI50 (EKVX NSCLC) | TGI (EKVX NSCLC) | GI50 (HOP-62 NSCLC) | TGI (HOP-62 NSCLC) | GI50 (LOX IMVI melanoma) | TGI (LOX IMVI melanoma) | GI50 (MCF7 breast) | TGI (MCF7 breast) | GI50 (NCI-H226 lung) | TGI (NCI-H226 lung) | GI50 (NCI-H522 lung) | TGI (NCI-H522 lung) | GI50 (SK-MEL-5 melanoma) | TGI (SK-MEL-5 melanoma) | GI50 (SNB-75 CNS) | TGI (SNB-75 CNS) | GI50 (UACC-62 melanoma) | TGI (UACC-62 melanoma) |
| --- | --- | --- | --- | --- | --- | --- | --- | --- | --- | --- | --- | --- | --- | --- | --- | --- | --- | --- | --- | --- |
| CNCc1cccc2c1OCCOCCOCCN(C)S(=O)(=O)c1ccc(cc1)-c1cnc(N)c(n1)C(=O)N2 | 0.446 µM | 1.99 µM | 2.83 µM | 12.7 µM | 1.77 µM | 4.04 µM | 1.05 µM | 3.23 µM | 0.0566 µM | 17.9 µM | 2.76 µM | 6.92 µM | 1.76 µM | 4.94 µM | 1.35 µM | 2.91 µM | 0.218 µM | 17.6 µM | 1.3 µM | 2.87 µM |
| O=C1Oc2ccccc2C(=O)/C1=C1/C=C(c2ccccc2)SS1 | – | > 100 µM | – | > 100 µM | – | > 100 µM | – | > 100 µM | – | > 100 µM | – | > 100 µM | – | > 100 µM | – | > 100 µM | – | > 100 µM | – | > 100 µM |
| O=C1C=C[C@H](O)[C@@]2(CO)O[C@@H]12 | 16.4 µM | 30 µM | 9.69 µM | 49.9 µM | 23.7 µM | > 55.2 µM | 5.51 µM | 19.8 µM | 5.38 µM | 23.8 µM | 17.3 µM | 50.7 µM | 1.81 µM | 3.79 µM | 16.1 µM | 29.7 µM | 11.3 µM | 23.4 µM | 4.55 µM | 14.3 µM |
| CCN=c1sc2c(n1NC(=O)c1cc3ccc1CCc1ccc(cc1)CC3)C(=O)c1ccccc1C2=O | 0.727 µM | 1.62 µM | 0.632 µM | 1.66 µM | 1.02 µM | 2.76 µM | 0.478 µM | 1.24 µM | 0.592 µM | 1.3 µM | 2.21 µM | 7.33 µM | 0.54 µM | 1.31 µM | 0.563 µM | 1.03 µM | 0.231 µM | 0.787 µM | 0.593 µM | 1.2 µM |
| CCNc1nc(O)c(/C=C2\C=Nc3ncccc32)s1 | 2.71 µM | > 100 µM | 16.6 µM | > 100 µM | 2.27 µM | 7.27 µM | 3.23 µM | 47.5 µM | 2.55 µM | > 100 µM | 2.83 µM | 28.7 µM | 1.25 µM | 8.83 µM | 3 µM | 9.47 µM | 1.92 µM | 4.25 µM | 3.01 µM | 9.11 µM |
